Source: patent US10273233B2, “Inhibitors of influenza viruses replication” (Vertex Pharmaceuticals Incorporated, priority 2015, dated 2019)
pEC50: −log10 of the molar value. Where two headings read alike, the source gives them in different places.

Experiments:
A/WS/33 = experiment: 3-day CP assay in MDCK cells; type: cell-based; conditions: Influenza A virus
A/NWS/33 = experiment: 3-day CP assay in MDCK cells; type: cell-based, influenza A; conditions: Influenza A virus, MDCK
A/Puerto Rico/8/34 = experiment: 3-day CP assay in MDCK cells; type: cell-based; conditions: Influenza A virus
A/Weiss/43 = experiment: 3-day CP assay in MDCK cells; type: cell-based; conditions: Influenza A virus
A/FM/1/47 = experiment: 3-day CP assay in MDCK cells; type: cell-based; conditions: Influenza A virus
A/Mal/302/54 = experiment: 3-day CP assay in MDCK cells; type: cell-based; conditions: Influenza A virus
A/Denver/1/57 = experiment: 3-day CP assay in MDCK cells; type: cell-based; conditions: Influenza A virus
A/Aichi/2/68 = experiment: 3-day CP assay in MDCK cells; type: cell-based; conditions: Influenza A virus
A/Hong Kong/8/68 = experiment: 3-day CP assay in MDCK cells; type: cell-based; conditions: Influenza A virus
A/Port Chalmers/1/73 = experiment: 3-day CP assay in MDCK cells; type: cell-based; conditions: Influenza A virus
A/Victoria/3/75 = experiment: 3-day CP assay in MDCK cells; type: cell-based; conditions: Influenza A virus
A/New Jersey/8/76 = experiment: microbe, parasite or virus in culture; type: cell-based; conditions: Influenza A virus, MDCK
A/Wisconsin/67/2005 = experiment: 3-day CP assay in MDCK cells; type: cell-based; conditions: Influenza A virus
A/Chelyabinsk/1/200 = experiment: 3-day CP assay in MDCK cells; type: cell-based; conditions: Influenza A virus
A/Fukushima/141/2006 = experiment: 3-day CP assay in MDCK cells; type: cell-based; conditions: Influenza A virus
A/Georgia/17/2006 = experiment: 3-day CP assay in MDCK cells; type: cell-based; conditions: Influenza A virus
A/Georgia/20/2006 = experiment: 3-day CP assay in MDCK cells; type: cell-based, influenza A; conditions: Influenza A virus, MDCK
A/Hawaii/2/2006 = experiment: 3-day CP assay in MDCK cells; type: cell-based; conditions: Influenza A virus
A/Missouri/3/2006 = experiment: 3-day CP assay in MDCK cells; type: cell-based; conditions: Influenza A virus
A/Nebraska/1/2006 = experiment: 3-day CP assay in MDCK cells; type: cell-based; conditions: Influenza A virus
A/Santiago/7981/2006 = experiment: 3-day CP assay in MDCK cells; type: cell-based; conditions: Influenza A virus
A/St. Petersburg8/2006 = experiment: 3-day CP assay in MDCK cells; type: cell-based; conditions: Influenza A virus
A/Virginia/01/2006 = experiment: 3-day CP assay in MDCK cells; type: cell-based; conditions: Influenza A virus
A/Cambodia0371/2007 = experiment: 3-day CP assay in MDCK cells; type: cell-based; conditions: Influenza A virus
A/Henan/Jinshui/147/2007 = experiment: 3-day CP assay in MDCK cells; type: cell-based; conditions: Influenza A virus
A/South Dakota/6/2007 = experiment: 3-day CP assay in MDCK cells; type: cell-based; conditions: Influenza A virus
A/Texas/12/2007 = experiment: 3-day CP assay in MDCK cells; type: cell-based; conditions: Influenza A virus
A/Uruguay/716/2007 = experiment: 3-day CP assay in MDCK cells; type: cell-based; conditions: Influenza A virus
A/California/07/2009 = experiment: 3-day CP assay in MDCK cells; type: cell-based; conditions: Influenza A virus, MDCK; A/California/07/2009
[1] = system: A/California/07/2009 NYMC, X-179A; experiment: 3-day CP assay in MDCK cells; type: cell-based; conditions: Influenza A virus
A/Mexico/4108/2009 = experiment: 3-day CP assay in MDCK cells; type: cell-based; conditions: Influenza A virus
A/New York/18/2009 = experiment: 3-day CP assay in MDCK cells; type: cell-based; conditions: Influenza A virus
A/Texas/48/2009 = experiment: 3-day CP assay in MDCK cells; type: cell-based; conditions: Influenza A virus
A/Virginia/ATCC2/2009 = experiment: 3-day CP assay in MDCK cells; type: cell-based; conditions: Influenza A virus
A/Virginia/ATCC3/2009 = experiment: 3-day CP assay in MDCK cells; type: cell-based; conditions: Influenza A virus
A/Swine/Iowa/15/30 = experiment: microbe, parasite or virus in culture; type: cell-based, influenza A; conditions: Influenza A virus, MDCK, in Sus scrofa
A/Swine/1976/31 = experiment: microbe, parasite or virus in culture; type: cell-based; conditions: Influenza A virus, MDCK, in Sus scrofa
A/Equine/Miami/63 = experiment: microbe, parasite or virus in culture; type: cell-based; conditions: Influenza A virus, MDCK
B/Lee/40 = experiment: 3-day CP assay in MDCK cells; type: cell-based; conditions: Influenza B virus
B/Russia/69 = experiment: 3-day CP assay in MDCK cells; type: cell-based; conditions: Influenza B virus
B/Memphis/20/1996--070 = experiment: 3-day CP assay in MDCK cells; type: cell-based; conditions: Influenza B virus
B/Mass/3/66 = experiment: 3-day CP assay in MDCK cells; type: cell-based; conditions: Influenza B virus
B/Memphis/20/1996--071 = experiment: 3-day CP assay in MDCK cells; type: cell-based; conditions: Influenza B virus
[2] = rat, 30 mg/kg, pH 8
[3] = monkey, 40 mg/kg, pH 8

NC12CC3CC(CC(C3)C1)C2 [Amantadine, amantadine]
pEC50 (A/WS/33): < 5.00 | pEC50 (A/NWS/33): < 5.00 | pEC50 (A/Puerto Rico/8/34): < 5.00 | pEC50 (A/Weiss/43): < 5.00 | pEC50 (A/FM/1/47): 6.18 | pEC50 (A/Mal/302/54): 5.68 | pEC50 (A/Denver/1/57): 6.51 | pEC50 (A/Aichi/2/68): 5.18 | pEC50 (A/Hong Kong/8/68): 5.43 | pEC50 (A/Port Chalmers/1/73): < 5.00 | pEC50 (A/Victoria/3/75): 5.07 | pEC50 (A/New Jersey/8/76): 6.09 | pEC50 (A/Wisconsin/67/2005): < 5.00 | pEC50 (A/Chelyabinsk/1/200): < 5.00 | pEC50 (A/Fukushima/141/2006): 6.34 | pEC50 (A/Georgia/17/2006): 6.60 | pEC50 (A/Georgia/20/2006): < 5.00 | pEC50 (A/Hawaii/2/2006): 5.04 | pEC50 (A/Missouri/3/2006): 5.22 | pEC50 (A/Nebraska/1/2006): < 5.00 | pEC50 (A/Santiago/7981/2006): < 5.00 | pEC50 (A/St. Petersburg8/2006): < 5.00 | pEC50 (A/Virginia/01/2006): < 5.00 | pEC50 (A/Cambodia0371/2007): < 5.00 | pEC50 (A/Henan/Jinshui/147/2007): < 5.00 | pEC50 (A/South Dakota/6/2007): 6.85 | pEC50 (A/Texas/12/2007): < 5.00 | pEC50 (A/Uruguay/716/2007): < 5.00 | pEC50 (A/California/07/2009): < 5.00 | pEC50 [1]: < 5.00 | pEC50 (A/Mexico/4108/2009): < 5.00 | pEC50 (A/New York/18/2009): < 5.00 | pEC50 (A/Texas/48/2009): < 5.00 | pEC50 (A/Virginia/ATCC2/2009): < 5.00 | pEC50 (A/Virginia/ATCC3/2009): < 5.00 | pEC50 (A/Swine/Iowa/15/30): 6.66 | pEC50 (A/Swine/1976/31): 7.11 | pEC50 (A/Equine/Miami/63): 5.76 | pEC50 (B/Lee/40): < 5.00 | pEC50 (B/Russia/69): < 5.00 | pEC50 (B/Memphis/20/1996--070): < 5.00

NC(=O)c1nc(F)c[nH]c1=O [Compound T-705, favipiravir]
pEC50 (A/WS/33): < 5.00 | pEC50 (A/NWS/33): 5.12 | pEC50 (A/Puerto Rico/8/34): < 5.00 | pEC50 (A/Weiss/43): 5.82 | pEC50 (A/FM/1/47): 5.35 | pEC50 (A/Mal/302/54): 5.47 | pEC50 (A/Denver/1/57): 5.96 | pEC50 (A/Aichi/2/68): < 5.00 | pEC50 (A/Hong Kong/8/68): 5.35 | pEC50 (A/Port Chalmers/1/73): 5.72 | pEC50 (A/Victoria/3/75): < 5.00 | pEC50 (A/New Jersey/8/76): 5.68 | pEC50 (A/Wisconsin/67/2005): < 5.00 | pEC50 (A/Chelyabinsk/1/200): 5.19 | pEC50 (A/Fukushima/141/2006): 5.72 | pEC50 (A/Georgia/17/2006): 5.02 | pEC50 (A/Georgia/20/2006): 5.20 | pEC50 (A/Hawaii/2/2006): 5.26 | pEC50 (A/Missouri/3/2006): 5.28 | pEC50 (A/Nebraska/1/2006): 5.19 | pEC50 (A/Santiago/7981/2006): 6.07 | pEC50 (A/St. Petersburg8/2006): < 5.00 | pEC50 (A/Virginia/01/2006): 5.51 | pEC50 (A/Cambodia0371/2007): 5.19 | pEC50 (A/Henan/Jinshui/147/2007): 5.21 | pEC50 (A/South Dakota/6/2007): 5.15 | pEC50 (A/Texas/12/2007): 5.15 | pEC50 (A/Uruguay/716/2007): 5.35 | pEC50 (A/California/07/2009): 5.70 | pEC50 [1]: < 5.00 | pEC50 (A/Mexico/4108/2009): < 5.00 | pEC50 (A/New York/18/2009): 5.89 | pEC50 (A/Texas/48/2009): 5.03 | pEC50 (A/Virginia/ATCC2/2009): 5.28 | pEC50 (A/Virginia/ATCC3/2009): 5.11 | pEC50 (A/Swine/Iowa/15/30): < 5.00 | pEC50 (A/Swine/1976/31): < 5.00 | pEC50 (A/Equine/Miami/63): < 5.00 | pEC50 (B/Lee/40): 5.19 | pEC50 (B/Mass/3/66): 5.47 | pEC50 (B/Russia/69): 6.54 | pEC50 (B/Memphis/20/1996--070): 5.62 | pEC50 (B/Memphis/20/1996--071): < 5.00

CC(C)(C)[C@@H](CC(=O)O)Nc1nc(-c2c[nH]c3ncc(F)cc23)ncc1F [Hydrate 2 of Compound (1)]
in vivo exposures (AUC), comparison of formulations [2]: statistically comparable | in vivo exposures (AUC), comparison of formulations [3]: statistically comparable
